From the supplement of paper PMC4858399
Counter-ions that a name gives are not always drawn.

How the values were obtained:
Conditions in all cases: exposure time 48 h
[1] = system: Caenorhabditis elegans N2; test: mean nematode size ln(EXT) after 48 h, plate-adjusted (DMSO control set to 6) (ln(EXT), control-adjusted); higher = larger nematodes / less growth inhibition
How it was run: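 C. elegans N2 larvae, synchronised at L1, grew for 48 h at 20°C in K-medium with killed OP50, 1% DMSO and 0.5–200 µM chemical. Mean size per well was derived from natural-logged Biosort extinction after a growth model removed debris. Adjustment across plates involved subtracting the vehicle control mean and adding 6.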

[2] = system: Caenorhabditis elegans N2; test: lowest effective concentration for larval growth inhibition (size below effect threshold); higher = less potent
How it was run: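 L1 larvae of C. elegans N2 (50 per 96-well) were grown in K-medium with killed bacteria and 1% DMSO, with the chemical at 0.5, 1, 5, 10, 50, 100 or 200 µM, for 48 h at 20°C. Per-worm extinction from the Biosort stood for size and was log-transformed into well means. For each chemical, the lowest effective concentration is the first dose where plate-adjusted mean size falls under the threshold and stays under it at the higher doses, using a threshold of 5.665.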

[3] = system: Caenorhabditis elegans N2; test: AC50 for larval growth inhibition (Hill fit); higher = less potent
How it was run: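 Synchronised C. elegans N2 L1 larvae (50 per well, 96-well plates) were grown for 48 h at 20°C in K-medium with killed OP50, 1% DMSO and 0.5–200 µM chemical. The COPAS Biosort measured each worm's size as extinction, which was log-transformed and averaged per well. AC50 came from a constrained Hill fit by weighted genetic-algorithm regression on wells with at least 10 worms. Out-of-range values are censored.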

| SMILES | mean nematode size ln(EXT) (ln) ([1]; 0.5 µM) | mean nematode size ln(EXT) (ln) ([1]; 1 µM) | mean nematode size ln(EXT) (ln) ([1]; 5 µM) | mean nematode size ln(EXT) (ln) ([1]; 10 µM) | mean nematode size ln(EXT) (ln) ([1]; 50 µM) | mean nematode size ln(EXT) (ln) ([1]; 100 µM) | mean nematode size ln(EXT) (ln) ([1]; 200 µM) | lowest effective concentration [2] [µM] | AC50 for larval growth inhibition [3] [µM] |
| --- | --- | --- | --- | --- | --- | --- | --- | --- | --- |
| CC(C)c1cccc(C(C)C)c1 [1,3-Diisopropylbenzene] | 6.02 | 5.98 | 5.99 | 6.07 | 6.21 | 6.12 | 5.46 | 200 | 175 |
| N#Cc1c[nH]cc1-c1cccc2c1OC(F)(F)O2 [Fludioxonil] | 6.15 | 6.03 | 6.08 | 6.01 | 6.06 | 5.27 | 4.42 | 100 | 101 |
| C=C(C)C(=O)[O][Sn]([CH2]CCC)([CH2]CCC)[CH2]CCC [Stannane, tributyl(2-methyl-1-oxo-2-propenyl)oxy-] | 4.73 | 4.66 | 3.93 | 3.57 | 3.8 | 3.85 | 3.56 | ≤ 0.5 | 0.511 |
| CC(=O)N1CCN(c2ccc(OCC3COC(Cn4ccnc4)(c4ccc(Cl)cc4Cl)O3)cc2)CC1 (stereo not given) [Ketoconazole] | 6 | 5.74 | 5.8 | 5.62 | 5.3 | 4.28 | 3.53 | 10 | 85.2 |
| Clc1ccc(Cl)c(Cl)c1 [1,2,4-Trichlorobenzene] | 5.82 | 5.79 | 5.69 | 5.76 | 5.66 | 5.84 | 4.27 | 200 | 186 |
| CCCCCCCCCCCCCCCCOS(=O)(=O)O [Sodium cetyl sulfate] | 5.79 | 6.01 | 5.91 | 5.92 | 5.38 | 5 | 4.68 | 50 | 74.7 |
| CCOP(=O)(SC(C)CC)N1CCSC1=O (stereo not given) [Fosthiazate] | 5.92 | 5.99 | 6.15 | 6.12 | 5.94 | 5.79 | 5.64 | 200 | 93.1 |
| ClC(Cl)=C(c1ccc(Cl)cc1)c1ccc(Cl)cc1 [p,p'-DDE] | 5.79 | 5.71 | 4.36 | 4.21 | 3.94 | 3.93 | 3.67 | 5 | 2.64 |
| CCOP(=S)(OCC)Oc1ccc2c(C)c(Cl)c(=O)oc2c1 [Coumaphos] | 5.36 | 5.23 | 4.39 | 4.44 | 3.95 | 3.82 | 3.58 | ≤ 0.5 | 3.33 |
| CCCOC/C(=N\c1ccc(Cl)cc1C(F)(F)F)n1ccnc1 [Triflumizole] | 5.97 | 6.09 | 4.54 | 6.04 | 5.95 | 4.88 | 3.47 | 100 | 21.3 |
